Laboratory results as given in patent US20040157280A1, “Antibody mediated ozone generation” (priority 2001, published 2004).
Entries after “also recorded” stand apart in the source; their conditions may differ.

Legend:
[1] = test system: E. coli; experiment: Bactericidal assay, E. coli (strain not singled out); assay type: cell-based; conditions: for bactericidal activity (in words): HPIX 40 μM, white light 1 h, 4° C.
Protocol: (§1) In a typical experiment, a culture of E. coli (in log phase growth, OD600=0.2-0.3) was repeatedly pelleted (3×3,500 rpm) and resuspended in PBS (pH 7.4). The PBS suspended cells were then added to glass vials and cooled to 4° C. Hematoporphyrin IX (40 μM) and antibody (20 μM) were added and the vials were either placed on a light box (visible light, 2.8 mW cm^−2) or in the dark at 4° C. and incubated for 1 h. Viability was determined by recovery of colony forming units (CFUs) on agar plates. Each experiment was performed at least in duplicate.
as §1, with “washed in PBS by pelleting” for “pelleted”, “rpm) the cells” for “rpm)”, “resuspending them” for “resuspended”

[2] = test system: human neutrophils (PMNs); experiment: Oxidation of indigo carmine 1 by activated human neutrophils; assay type: cell-based; conditions: indigo carmine 30 μM, PMNs 1.5×10^7 cell/mL, phorbol myristate 1 μg/mL, 37° C.
Protocol: FIG. 20A illustrates the time course of oxidation of indigo carmine 1 (30 μM) (Δ) and formation of 2 (▪) by human neutrophils (PMNs, 1.5×10^7 cell/mL) activated with phorbol myristate (1 μg/mL) in PBS (pH 7.4) at 37° C. No oxidation of indigo carmine 1 occurs with PMNs that are not activated (data not shown). Neutrophils were prepared as previously described. Hypochlorous acid (HOCl) is an oxidant known to be produced by neutrophils.
Human neutrophils were prepared as described by M. Markert, P. C. Andrews, and B. M. Babior Methods Enzymol. 105, 358 (1984). Following activation with phorbol myristate (1 μg/mL), the neutrophils (1.5×10^7 cells/mL) produced an oxidant species that oxidatively cleaves indigo carmine 1 to isatin sulfonic acid 2 (FIG. 19 and FIG. 20B). Hypochlorous acid (HOCI) is an oxidant that is known to be produced by neutrophils.

[3] = Long-term near-UV photo-production of H2O2 with catalase cycles; assay type: biochemical
Protocol: FIG. 8A illustrates the production of H2O2 by immunoglobulins and non-immunoglobulin proteins. Assays were performed by near-UV irradiation (312 nm, 800 μW cm^−2) of individual antibody/protein samples (100 μL, 6.7 μM) in phosphate-buffered saline (PBS) [10 mM sodium phosphate, 150 mM NaCl (pH 7.4)] in a sealed glass vial on a transilluminator (Fischer Biotech) under ambient aerobic conditions at 20EC. Aliquots (10 μL) were removed at timed intervals throughout the assay. H2O2 concentration was determined by the amplex red method. […]
FIG. 8B illustrates the long-term production of H2O2 by sheep poly-IgG (6.7 μM, 200 μL). […] H2O2 concentration was measured as described in FIG. 8A. […]
FIG. 8E illustrates the long-term inhibition of antibody photo-production of H2O2 by H2O2 and complete re-establishment of activity after removal of H2O2. […] H2O2 fo rmation throughout the assay was measured by the amplex red assay. […]
FIG. 11B provides the effect of chloride ion on antibody-mediated photo-production of H2O2. […] Aliquots (10 μL) were removed throughout the assay and the H2O2 concentration determined by the amplex red assay. […]

[4] = Hydrogen peroxide production by UV-irradiated antibody/protein (Amplex Red assay); assay type: biochemical; conditions: UV irradiation in PBS
Protocol: Antibody/Protein Irradiation. Unless otherwise stated, the assay solution (100 μl, 6.7 μM protein in PBS, pH 7.4) was added to a glass vial, sealed with a screw-cap, and irradiated with either UV (312 nm, […] Fischer-Biotech transilluminator) or visible light.
Quantitative Assay for Hydrogen Peroxide. An aliquot (20 μl) from the protein solution was removed and added into a well of a 96-well microtiter plate (Costar) containing reaction buffer (80 μl). Working solution (100 μl/400 μM Amplex Red reagent ½ units/ml horseradish peroxidase) was then added, and the plate was incubated in the dark for 30 min. The fluorescence of the well components was then measured using a CytoFluor Multiwell Plate Reader (Series 4000, PerSeptive Biosystems, Framingham, Mass.; Ex/Em: 530/580 nm). The hydrogen peroxide concentration was determined using a standard curve. All experiments were run in duplicate, and the rate is quoted as the mean of at least two measurements.
Denaturation. IgG 19G12 (100 μl, 6.7 μM) was heated to 100EC in an Eppendorf tube for 2 min. The resultant solution was transferred to a glass, screw-cap vial and irradiated with UV light for 30 min. The concentration of H2O2 was determined after 30 min.

## CC1=C(CCC(=O)O)c2cc3[nH]c(cc4nc(cc5[nH]c(cc1n2)c(C)c5C(C)O)C(C)=C4C(C)O)c(C)c3CCC(=O)O (stereo not drawn) [hematoporphyrin IX]
[1]
  bactericidal activity (in words): negligible bactericidal activity

## O=C1/C(=C2\Nc3ccc(S(=O)(=O)O)cc3C2=O)Nc2ccc(S(=O)(=O)O)cc21 [indigo carmine 1, indigo carmine]
[2]
  isatin sulfonic acid 2 formed: 25.1 ± 0.3 µM

## N[C@@H](Cc1c[nH]c2ccccc12)C(=O)O [tryptophan]
[3]; tryptophan 20 μM
  production of H2O2 during near-UV irradiation: ca. 0.5 mole equivalents

## bovine serum albumin: bovine serum albumin
[1]
  bactericidal activity (in words): no bacterial killing

## catalase
[1]; catalase 13 mU/mL
  protection against the bactericidal activity of non-specific antibodies: complete protection; also recorded: completely attenuated the bactericidal activity

## chick ovalbumin: chick-egg ovalbumin from Sigma
[4]
  ability to reduce ^1O2 / generate H2O2 (in words): one of the most efficient proteins at reducing ^1O2

## superoxide dismutase: enzyme obtained from Sigma
[4]
  ability to reduce ^1O2 / generate H2O2 (in words): the same as irradiation of PBS alone; also recorded: do not reduce ^1O2

## β-galactosidase: enzyme from Sigma; most efficient non-immunoglobulin protein at H2O2 photo-production
[3]; near-UV, from its 39 Trp residues
  H2O2 generated by photo-production: 5.9 mol eq.

B1: RNase A: ribonuclease from Amersham Pharmacia (protein, UniProt P61823 27-150, looked up)
Ribonuclease pancreatic: KETAAAKFERQHMDSSTSAASSSNYCNQMMKSRNLTKDRCKPVNTFVHESLADVQAVCSQKNVACKNGQTNCYQSYSTMSITDCRETGSSKYPNCAYKTTQANKHIIVACEGNPYVPVHFDASV
[4]
  ability to reduce ^1O2 / generate H2O2 (in words): do not reduce ^1O2
